Species: Rattus norvegicus
Experiment: DrugMatrix - Regimen: Daily Repeat
Type: toxicity, organism-based, Sprague-Dawley
Design: regimen Daily Repeat, gender Male, age 6-8 weeks
Settings: in vivo, iv, 0 mg/kg, dose level Control, vehicle 100 % SALINE; for ABSOLUTE BASOPHIL / ABSOLUTE EOSINOPHIL / ABSOLUTE LYMPHOCYTE / ABSOLUTE MONOCYTE / ABSOLUTE SEGMENTED NEUTROPHIL / BASOPHIL / EOSINOPHIL / ERYTHROCYTE COUNT / HEMATOCRIT / HEMOGLOBIN / LEUKOCYTE COUNT / LYMPHOCYTE / MEAN CORPUSCULAR HEMOGLOBIN / MEAN CORPUSCULAR HEMOGLOBIN CONCENTRATION / MEAN CORPUSCULAR VOLUME / MONOCYTE / NEUTROPHIL / NUCLEATED RED BLOOD CELLS / PLATELET COUNT: tissue Blood; for ALANINE AMINOTRANSFERASE / ALBUMIN / ALKALINE PHOSPHATASE / ASPARTATE AMINOTRANSFERASE / BLOOD UREA NITROGEN / CARBON DIOXIDE / CHLORIDE / CHOLESTEROL / CREATINE PHOSPHOKINASE / CREATININE / GLUCOSE / LACTATE DEHYDROGENASE / LIPASE / PHOSPHORUS / POTASSIUM / SODIUM / TOTAL BILIRUBIN / TOTAL PROTEIN / URIC ACID: tissue Plasma

C[N+](C)(C)CCOC(=O)CCC(=O)OCC[N+](C)(C)C.[Cl-].[Cl-] [SUCCINYLCHOLINE CHLORIDE]
ABSOLUTE BASOPHIL (72 h, time 3 day): 0 CELLS/uL
ABSOLUTE EOSINOPHIL (72 h, time 3 day): 193.5 CELLS/uL
ABSOLUTE LYMPHOCYTE (72 h, time 3 day): 15717.5 CELLS/uL
ABSOLUTE MONOCYTE (72 h, time 3 day): 389.33 CELLS/uL
ABSOLUTE SEGMENTED NEUTROPHIL (72 h, time 3 day): 1883 CELLS/uL
BASOPHIL (72 h, time 3 day): 0%
EOSINOPHIL (72 h, time 3 day): 1.17%
ERYTHROCYTE COUNT (72 h, time 3 day): 5.68 x10E6/uL
HEMATOCRIT (72 h, time 3 day): 35.83%
HEMOGLOBIN (72 h, time 3 day): 13.48 G/DL
LEUKOCYTE COUNT (72 h, time 3 day): 18.18 x10E3/uL
LYMPHOCYTE (72 h, time 3 day): 86.67%
MEAN CORPUSCULAR HEMOGLOBIN (72 h, time 3 day): 23.8 pg
MEAN CORPUSCULAR HEMOGLOBIN CONCENTRATION (72 h, time 3 day): 37.68 G/DL
MEAN CORPUSCULAR VOLUME (72 h, time 3 day): 63.27 fL
MONOCYTE (72 h, time 3 day): 2.17%
NEUTROPHIL (72 h, time 3 day): 10%
NUCLEATED RED BLOOD CELLS (72 h, time 3 day): 0 /100WBC
PLATELET COUNT (72 h, time 3 day): 1186.33 x10E3/uL
ALANINE AMINOTRANSFERASE (72 h, time 3 day): 68.5 u/L
ALBUMIN (72 h, time 3 day): 4.37 G/DL
ALKALINE PHOSPHATASE (72 h, time 3 day): 396.33 u/L
ASPARTATE AMINOTRANSFERASE (72 h, time 3 day): 92.5 u/L
BLOOD UREA NITROGEN (72 h, time 3 day): 18 mg/dL
CARBON DIOXIDE (72 h, time 3 day): 24.33 mmol/L
CHLORIDE (72 h, time 3 day): 102.4 MEQ/L
CHOLESTEROL (72 h, time 3 day): 67.17 mg/dL
CREATINE PHOSPHOKINASE (72 h, time 3 day): 378.67 u/L
CREATININE (72 h, time 3 day): 0.19 mg/dL
GLUCOSE (72 h, time 3 day): 178.33 mg/dL
LACTATE DEHYDROGENASE (72 h, time 3 day): 245.17 u/L
LIPASE (72 h, time 3 day): 9.2 u/L
PHOSPHORUS (72 h, time 3 day): 12.37 mg/dL
POTASSIUM (72 h, time 3 day): 6.48 MEQ/L
SODIUM (72 h, time 3 day): 143.28 MEQ/L
TOTAL BILIRUBIN (72 h, time 3 day): 0.23 mg/dL
TOTAL PROTEIN (72 h, time 3 day): 5.65 G/DL
URIC ACID (72 h, time 3 day): 1.6 mg/dL
ABSOLUTE BASOPHIL (120 h, time 5 day): 0 CELLS/uL
ABSOLUTE EOSINOPHIL (120 h, time 5 day): 27.5 CELLS/uL
ABSOLUTE LYMPHOCYTE (120 h, time 5 day): 13593.17 CELLS/uL
ABSOLUTE MONOCYTE (120 h, time 5 day): 576 CELLS/uL
ABSOLUTE SEGMENTED NEUTROPHIL (120 h, time 5 day): 1836.67 CELLS/uL
BASOPHIL (120 h, time 5 day): 0%
EOSINOPHIL (120 h, time 5 day): 0.17%
ERYTHROCYTE COUNT (120 h, time 5 day): 5.99 x10E6/uL
HEMATOCRIT (120 h, time 5 day): 37.42%
HEMOGLOBIN (120 h, time 5 day): 13.78 G/DL
LEUKOCYTE COUNT (120 h, time 5 day): 16.03 x10E3/uL
LYMPHOCYTE (120 h, time 5 day): 85.17%
MEAN CORPUSCULAR HEMOGLOBIN (120 h, time 5 day): 23.08 pg
MEAN CORPUSCULAR HEMOGLOBIN CONCENTRATION (120 h, time 5 day): 36.83 G/DL
MEAN CORPUSCULAR VOLUME (120 h, time 5 day): 62.6 fL
MONOCYTE (120 h, time 5 day): 3.5%
NEUTROPHIL (120 h, time 5 day): 11.17%
NUCLEATED RED BLOOD CELLS (120 h, time 5 day): 0 /100WBC
PLATELET COUNT (120 h, time 5 day): 1352.5 x10E3/uL
ALANINE AMINOTRANSFERASE (120 h, time 5 day): 49.83 u/L
ALBUMIN (120 h, time 5 day): 4.25 G/DL
ALKALINE PHOSPHATASE (120 h, time 5 day): 331.33 u/L
ASPARTATE AMINOTRANSFERASE (120 h, time 5 day): 86.17 u/L
BLOOD UREA NITROGEN (120 h, time 5 day): 19.5 mg/dL
CARBON DIOXIDE (120 h, time 5 day): 26.67 mmol/L
CHLORIDE (120 h, time 5 day): 103 MEQ/L
CHOLESTEROL (120 h, time 5 day): 67.5 mg/dL
CREATINE PHOSPHOKINASE (120 h, time 5 day): 346.17 u/L
CREATININE (120 h, time 5 day): 0.22 mg/dL
GLUCOSE (120 h, time 5 day): 170.67 mg/dL
LACTATE DEHYDROGENASE (120 h, time 5 day): 405.5 u/L
LIPASE (120 h, time 5 day): 8.83 u/L
PHOSPHORUS (120 h, time 5 day): 11.3 mg/dL
POTASSIUM (120 h, time 5 day): 6.06 MEQ/L
SODIUM (120 h, time 5 day): 143.4 MEQ/L
TOTAL BILIRUBIN (120 h, time 5 day): 0.17 mg/dL
TOTAL PROTEIN (120 h, time 5 day): 6.22 G/DL
URIC ACID (120 h, time 5 day): 1.63 mg/dL

Source: ChEMBL document CHEMBL3885881, “DrugMatrix”
